How the values were obtained:
[1] = target: T1, porcine pancreatic lipase (Sus scrofa, UniProt P00591); assay: Lipase inhibitory activity measurement (4-UMO fluorescent substrate); assay type: biochemical; settings: 4-UMO substrate, pH 8.0, 25° C., 30 minutes
T1 construct: purchased Sigma
T1 sequence (P00591 1-450): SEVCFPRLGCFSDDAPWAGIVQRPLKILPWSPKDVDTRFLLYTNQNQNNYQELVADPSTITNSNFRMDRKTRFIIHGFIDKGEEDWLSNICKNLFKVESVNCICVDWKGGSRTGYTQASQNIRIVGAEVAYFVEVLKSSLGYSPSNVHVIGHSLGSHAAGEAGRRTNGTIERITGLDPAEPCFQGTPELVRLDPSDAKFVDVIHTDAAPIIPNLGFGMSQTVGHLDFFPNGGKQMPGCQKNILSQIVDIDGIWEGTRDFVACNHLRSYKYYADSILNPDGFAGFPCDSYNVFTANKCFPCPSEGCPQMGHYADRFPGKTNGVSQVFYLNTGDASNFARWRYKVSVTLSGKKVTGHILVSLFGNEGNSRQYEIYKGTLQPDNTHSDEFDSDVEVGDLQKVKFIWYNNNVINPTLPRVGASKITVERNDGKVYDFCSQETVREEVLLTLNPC
Procedure: Lipase activity measurement was carried out by using oleic acid ester of fluorescent 4-methylumbelliferone (4-UMO) as a substrate, and measuring the fluorescence of 4-methylumbelliferone produced by reaction.
In the measurement, 13 mM Tris-HCl containing 150 mM NaCl and 1.36 mM CaCl2 was used as a buffer (pH 8.0). Substrate 4-UMO (Sigma) was prepared as 0.1M solution in DMSO and diluted 1000-fold with the buffer mentioned above. Similarly, lipase (porcine pancreatic lipase (Sigma)) was prepared as 400 U/ml solution in the buffer mentioned above and used in enzymatic measurement.
50 μl of the 4-UMO buffer solution and 25 μl of distilled water (or sample solution) were placed in a 96-well microplate and mixed at 25° C., followed by adding 25 μl of the lipase buffer solution to start enzyme reaction. After 30 minutes of reaction, 100 μl of 0.1M citric acid buffer (pH 4.2) was added to terminate the reaction, and the fluorescence of 4-methylumbelliferone (excitation wavelength: 355 nm, fluorescence wavelength: 460 nm) produced by the reaction was measured with a fluorescence plate reader (Labsystems, Fluoroskan Asent CF).
An inhibitory activity of the sample was determined as IC50, or the amount of the sample which gave […] of inhibition compared to the activity of control (distilled water).

[2] = Solubility of purified compound; assay type: physicochemical; settings: purified white powder
From the text: The product obtained from oxidative polymerization reaction may be purified by conventional methods such as chromatography. […] Therefore, this compound is suitable for use in, for example, foods and/or beverages, and pharmaceutical drugs as an active lipase inhibitory ingredient for suppressing absorption of dietary lipids, thereby suppressing the rise of blood triglyceride or decreasing increased blood triglyceride.

Row | IC50 [1] [nM] | solubility [2] | Compound | IC50 ([1]; value in brackets) [nM] | lipase inhibitory activity IC50 [1] [µg/mL]
1 | 67.8 | soluble in water, methanol and DMSO | O=C(O[C@@H]1Cc2c(O)cc(O)cc2O[C@@H]1C1=CC(=O)C2(O)Oc3c(O)c(O)cc([C@H]4Oc5cc(O)cc(O)c5C[C@H]4OC(=O)c4cc(O)c(O)c(O)c4)c3C12)c1cc(O)c(O)c(O)c1 (some centres unmarked) [OTNG, oolongtheanin-3′-O-gallate] | 68 | 
2 |  |  | epigallocatechin-3-O-gallate [EGCG, reference compound] | 349 | 0.16
